Measurements from patent US20040039049A1, “Stable amorphous calcium pseudomonate and processes for the preparation thereof” (CHEMAGIS LTD, priority 2002, published 2004).
Values belong to the compound of their own block, whether it stands above or below them.

Experiments:
[1] = on storage, prior patents; cited from earlier work
[2] = Decomposition of pseudomonic acid during the process of preparing the calcium salt; format: physicochemical; conditions: for Related Substances (from process) P.A. D / Decomposition Products D.P. I / Decomposition Products D.P. II / Related Substances (from process) P.A. B / Related Substances (from process) P.A. C / Related Substances (from process) P.A. E: before / after preparation of the calcium salt; for Decomposition Products D.P. I / Decomposition Products D.P. II / Related Substances (from process) P.A. B / Related Substances (from process) P.A. C / Related Substances (from process) P.A. E: unit assumed
Protocol: The calcium pseudomonate solution was prepared by a slow addition of solid calcium hydroxide to a suspension of pseudomonic acid in water. The calcium salt formed is gradually dissolved. The almost clear solution is filtered and frozen.
Pseudomonic acid (100 gr.) is suspended in water (1000 ml). The mixture is cooled below 15° C. and calcium hydroxide (ca. 7.0 gr.) is added gradually until the pH is 8. The slightly turbid mixture is filtered and the solution is frozen and lyophilized. The product obtained is crushed and milled to give amorphous calcium pseudomonate in quantitative yield.

[3] = Stability on storage (related substances and decomposition products); format: physicochemical; conditions: for Decomposition Products D.P. I / Related Substances (from process) P.A. B / Related Substances (from process) P.A. C / Related Substances (from process) P.A. D / Related Substances (from process) P.A. E: unit assumed
[4] = Repeat of prior-art process (evaporation of solvents); format: physicochemical; conditions: prior-art process repeated, regardless of conditions used to distill out the water
Protocol: Process for the preparation of amorphous calcium pseudomonate is described in U.S. Pat. No. 4,916,155, U.S. Pat. No. 5,191,093 and U.S. Pat. No. 5,436,266. A solution of pseudomonic acid is dissolved in a mixture of methanol and water and neutralized to pH 7.1 with calcium oxide. The solution is filtered and the solvents are evaporated under reduced pressure to give solid foam. Trituration of the foam with diethyl ether affords amorphous calcium pseudomonate.
This decomposition occurred regardless of the conditions used to distill out the water.

Related Substances (from process) P.A. D [2]: 1.25 | Decomposition Products D.P. I [2]: 0.62% | Decomposition Products D.P. II [2]: 1.1% | Related Substances (from process) P.A. B [2]: 0.4% | Related Substances (from process) P.A. C [2]: 0.1% | Related Substances (from process) P.A. E [2]: 0.15% | Decomposition on storage (in words) ([3]; stored at an appropriate temperature): did not show decomposition | Decomposition Products D.P. II ([3]; t = 0): 1.00 | Decomposition Products D.P. I ([3]; t = 0): 0.44% | Related Substances (from process) P.A. B ([3]; t = 0): 0.1% | Related Substances (from process) P.A. C ([3]; t = 0): 0.09% | Related Substances (from process) P.A. D ([3]; t = 0): 0.9% | Related Substances (from process) P.A. E ([3]; t = 0): 0.1% | Decomposition Products D.P. II ([3]; t = 18 months (at 2-8° C.)): 1.06 | Decomposition Products D.P. I ([3]; t = 18 months (at 2-8° C.)): 0.62% | Related Substances (from process) P.A. B ([3]; t = 18 months (at 2-8° C.)): 0.18% | Related Substances (from process) P.A. C ([3]; t = 18 months (at 2-8° C.)): 0.08% | Related Substances (from process) P.A. D ([3]; t = 18 months (at 2-8° C.)): 0.97% | Related Substances (from process) P.A. E ([3]; t = 18 months (at 2-8° C.)): 0.09% | Decomposition during the evaporation of the solvents (in words) [4]: appreciable decomposition
SMILES: C/C(=C\C(=O)OCCCCCCCCC(=O)[O-])C[C@@H]1OC[C@H](C[C@@H]2O[C@H]2[C@@H](C)[C@H](C)O)[C@@H](O)[C@H]1O.C/C(=C\C(=O)OCCCCCCCCC(=O)[O-])C[C@@H]1OC[C@H](C[C@@H]2O[C@H]2[C@@H](C)[C@H](C)O)[C@@H](O)[C@H]1O.[Ca+2] [amorphous calcium pseudomonate, calcium pseudomonate]
Thermal stability (in words) [1]: thermally labile

Related Substances (from process) P.A. D [2]: 1.17 | Decomposition Products D.P. I [2]: 0.58% | Decomposition Products D.P. II [2]: 0.81% | Related Substances (from process) P.A. B [2]: 0.57% | Related Substances (from process) P.A. C [2]: 0.16% | Related Substances (from process) P.A. E [2]: 0.21% | Decomposition during the preparation of the calcium salt (in words) ([2]; process of the present invention): no decomposition
SMILES: C/C(=C\C(=O)OCCCCCCCCC(=O)O)C[C@@H]1OC[C@H](C[C@@H]2O[C@H]2[C@@H](C)[C@H](C)O)[C@@H](O)[C@H]1O [pseudomonic acid, Pseudomonic acid A]
